PMC7356589, “Hybrid Gold(I) NHC-Artemether Complexes to Target Falciparum Malaria Parasites” (Molecules, 2020)
Like-named read-outs stand apart in the source and are kept apart here.

Columns and labels:
[1] = tested on: P. falciparum strain F32-TEM (F32-Tanzania); test: In vitro antiplasmodial activity (SYBR Green fluorescence and [3H] hypoxanthine assays); format: cell-based, Plasmodium falciparum
Experimental: In vitro antiplasmodial activities of the synthesized hybrid molecules were evaluated against the P. falciparum strain F32-TEM (corresponding to the parental strain F32-Tanzania). Each molecule was tested at least in three independent experiments (except Aubis(5-Bn), tested twice) by a SYBR Green Fluorescence assay but also at least once with the standard chemosensitivity assay recommended by the WHO and based on the incorporation of [^3H] hypoxanthine.
For the SYBR Green Fluorescence assay, ring stage parasites were treated with the drugs for 48 h. Then, the pellets were washed twice with PBS and frozen at −20 °C. Thawed plates were incubated for 2 h at room temperature with the SYBR Green (Thermo-Fisher, Illkirch, France) lysis buffer (20 mm Tris base pH 7.5, 5 mm EDTA, 0.008% w/v saponin, 0.08% w/v Triton X-100). The plates were then read using a fluorescence plate reader (FLx800, BioTek, Illkirch, France) at an excitation wavelength of 485 nm and 535 nm for the emission wavelength. The IC50 values (concentration inhibiting 50% of the parasite’s growth) were determined using GraphPad Prism software 7 (GraphPad Software, San Diego, CA, USA).
For [^3H] hypoxanthine assay, ring stage parasites were incubated with the drug dilutions for 24 h, then, [^3H] hypoxanthine (50 μL/0.25 μCi; Perkin-Elmer, Courtaboeuf, France) was added for another 24 h period. After that, plates were frozen at −20 °C. The next step is to thaw the plates and to collect the nucleic acids. Tritium incorporation was then determined thanks to a β-counter (Perkin-Elmer, Courtaboeuf, France).
The antiplasmodial activities reported in Table 1 correspond thus to the mean of IC50 values from at least 4 independent experiments acquired by the two methods, SYBR Green and radioactivity.

Vero cell line = test: Cytotoxicity on Vero cells (MTT); format: cell-based, monkey; settings: for IC50: Vero cells, 48 h, MTT, read-out: Cytotoxicity on Vero Cells IC50 ± SEM
Experimental: The cells were cultured in MEM medium (Dutscher, Brumath, France) supplemented with 10% fetal bovine serum (Dutscher), 0.7 mM glutamine and 100 μg/mL gentamicin. The cells were seeded at 10^4 cells per well in a 96-well plates and incubated during 24 h. Then, cells were incubated for additional 48 h with the drugs. […] Subsequently, DMSO was added to the wells containing the cells and MTT to dissolve the formed crystals. The plates were then read to determine the absorbance at wavelength of 540 nm (µQuant, BioTek, Illkirch, France). Cell proliferation was calculated from at least three independent experiments using GraphPad Prism software 7 (GraphPad Software, San Diego, CA, USA). The cytotoxic/antiplasmodial activity ratio corresponds to the selectivity index.

[2] = Plasmodium falciparum, F32, 48 h, strain F32-Tanzania (F32-TEM), mean of at least 4 experiments, SYBR Green and radioactivity assays, read-out: Antiplasmodial Activity on P. falciparum IC50 ± SEM
[3] = strain F32-Tanzania (F32-TEM), mean of at least 4 experiments, SYBR Green and radioactivity assays, 48 h, read-out: Antiplasmodial Activity on P. falciparum IC50 ± SEM

| SMILES | IC50 [1, 2] | IC50 [1, 3] | IC50 (Vero cell line) | other results |
| --- | --- | --- | --- | --- |
| C[C@@H]1CCC2[C@@H](C)[C@@H](OCCCn3cc[n+](Cc4ccccc4)c3)O[C@@H]3O[C@@]4(C)CCC1[C@@]23OO4 (stereo partly drawn) [L3-Bn, 3′-Benzyl-1′-[10β-(20-propoxy)dihydroartemisinin]1H-imidazol-3-ium bromide] | 351 ± 56 nM |  |  |  |
| Cc1cc(C)c(-[n+]2ccn(CCCCCO[C@H]3O[C@@H]4O[C@@]5(C)CCC6[C@H](C)CCC([C@H]3C)[C@]64OO5)[c]2[Au-][c]2n(CCCCCO[C@H]3O[C@@H]4O[C@@]5(C)CCC6[C@H](C)CCC([C@H]3C)[C@]64OO5)cc[n+]2-c2c(C)cc(C)cc2C)c(C)c1.[Cl-] (some centres unmarked) [Aubis(5-Mes)] |  | 100 ± 12 nM |  |  |
| CC(=O)OC[C@H]1O[C@@H]([S-])[C@H](OC(C)=O)[C@@H](OC(C)=O)[C@@H]1OC(C)=O.CCP(CC)CC.[Au+] [Auranofin, reference compound] |  | 1500 nM |  |  |
| C[C@@H]1CCC2[C@@H](C)[C@@H](OCCCn3cc[n+](Cc4ccccc4)[c]3[Au-][c]3n(CCCO[C@H]4O[C@@H]5O[C@@]6(C)CCC7[C@H](C)CCC([C@H]4C)[C@]75OO6)cc[n+]3Cc3ccccc3)O[C@@H]3O[C@@]4(C)CCC1[C@@]23OO4.[Cl-] (some centres unmarked) [Aubis(3-Bn)] |  | 22 ± 3 nM | 300 nM |  |
| C[C@@H]1CCC2[C@@H](C)[C@@H](OCCCCCn3cc[n+](Cc4ccccc4)[c]3[Au-][c]3n(CCCCCO[C@H]4O[C@@H]5O[C@@]6(C)CCC7[C@H](C)CCC([C@H]4C)[C@]75OO6)cc[n+]3Cc3ccccc3)O[C@@H]3O[C@@]4(C)CCC1[C@@]23OO4.[Cl-] (some centres unmarked) [Aubis(5-Bn)] |  | 72 ± 14 nM | 600 nM |  |
| C[C@@H]1CCC2[C@@H](C)[C@@H](OCCCn3cc[n+](C)c3)O[C@@H]3O[C@@]4(C)CCC1[C@@]23OO4 (stereo partly drawn) [L3-Me, 3′-methyl-1′-[10β-(20-propoxy)-dihydroartemisinin]1H-imidazol-3-ium bromide] | 935 ± 117 nM |  |  |  |
| C[C@@H]1CCC2[C@@H](C)[C@@H](OCCCCn3cc[n+](-c4ccc5ccccc5n4)c3)O[C@@H]3O[C@@]4(C)CCC1[C@@]23OO4 (stereo partly drawn) [L4-Quin, 3′-Quinolin-2-yl-1′-[10β-(21-butoxy)dihydroartemisinin]1H-imidazol-3-ium bromide] | 330 ± 37 nM |  |  |  |
| C[C@@H]1CCC2[C@@H](C)[C@@H](OCCCn3cc[n+](-c4ccc5ccccc5n4)[c]3[Au-][c]3n(CCCO[C@H]4O[C@@H]5O[C@@]6(C)CCC7[C@H](C)CCC([C@H]4C)[C@]75OO6)cc[n+]3-c3ccc4ccccc4n3)O[C@@H]3O[C@@]4(C)CCC1[C@@]23OO4.[Cl-] (some centres unmarked) [Aubis(3-Quin)] |  | 23 ± 8 nM | 1200 nM |  |
| Cc1cc(C)c(-[n+]2ccn(CCCO[C@H]3O[C@@H]4O[C@@]5(C)CCC6[C@H](C)CCC([C@H]3C)[C@]64OO5)[c]2[Au-][c]2n(CCCO[C@H]3O[C@@H]4O[C@@]5(C)CCC6[C@H](C)CCC([C@H]3C)[C@]64OO5)cc[n+]2-c2c(C)cc(C)cc2C)c(C)c1.[Cl-] (some centres unmarked) [Aubis(3-Mes)] |  | 61 ± 37 nM | 500 nM |  |
| CC(C)[n+]1ccn(CCCO[C@H]2O[C@@H]3O[C@@]4(C)CCC5[C@H](C)CCC([C@H]2C)[C@]53OO4)[c]1[Au-][c]1n(CCCO[C@H]2O[C@@H]3O[C@@]4(C)CCC5[C@H](C)CCC([C@H]2C)[C@]53OO4)cc[n+]1C(C)C.[Cl-] (some centres unmarked) [Aubis(3-iPr)] |  | 13 ± 5 nM | 700 nM |  |
| C[C@@H]1CCC2[C@@H](C)[C@@H](OCCCCn3cc[n+](C)c3)O[C@@H]3O[C@@]4(C)CCC1[C@@]23OO4 (stereo partly drawn) [L4-Me, 3′-methyl-1′-[10β-(21-butoxy)-dihydroartemisinin]1H-imidazol-3-ium bromide] | 840 ± 64 nM |  |  |  |
| C[C@@H]1CCC2[C@@H](C)[C@@H](OCCCCCn3cc[n+](C)c3)O[C@@H]3O[C@@]4(C)CCC1[C@@]23OO4 (stereo partly drawn) [L5-Me, 3′-methyl-1′-[10β-(22-pentoxy)-dihydroartemisinin]1H-imidazol-3-ium bromide] | 172 ± 22 nM |  |  |  |
| Cc1cc(C)c(-[n+]2ccn(CCCO[C@H]3O[C@@H]4O[C@@]5(C)CCC6[C@H](C)CCC([C@H]3C)[C@]64OO5)c2)c(C)c1 (stereo partly drawn) [L3-Mes, 3′-Mesityl-1′-[10β-(20-propoxy)dihydroartemisinin]1H-imidazol-3-ium bromide] | 655 ± 53 nM |  |  |  |
| C[C@@H]1CCC2[C@@H](C)[C@@H](OCCCCn3cc[n+](-c4ccc5ccccc5n4)[c]3[Au-][c]3n(CCCCO[C@H]4O[C@@H]5O[C@@]6(C)CCC7[C@H](C)CCC([C@H]4C)[C@]75OO6)cc[n+]3-c3ccc4ccccc4n3)O[C@@H]3O[C@@]4(C)CCC1[C@@]23OO4.[Cl-] (some centres unmarked) [Aubis(4-Quin)] |  | 83 ± 31 nM |  |  |
| Cc1cc(C)c(-[n+]2ccn(CCCCO[C@H]3O[C@@H]4O[C@@]5(C)CCC6[C@H](C)CCC([C@H]3C)[C@]64OO5)[c]2[Au-][c]2n(CCCCO[C@H]3O[C@@H]4O[C@@]5(C)CCC6[C@H](C)CCC([C@H]3C)[C@]64OO5)cc[n+]2-c2c(C)cc(C)cc2C)c(C)c1.[Cl-] (some centres unmarked) [Aubis(4-Mes)] |  | 38 ± 3 nM | 700 nM |  |
| CC(C)[n+]1ccn(CCCO[C@H]2O[C@@H]3O[C@@]4(C)CCC5[C@H](C)CCC([C@H]2C)[C@]53OO4)c1 (stereo partly drawn) [L3-iPr, 3′-Isopropyl-1′-[10β-(20-propoxy)dihydroartemisinin]1H-imidazol-3-ium bromide] | 335 ± 28 nM |  |  |  |
| C[C@@H]1CCC2[C@@H](C)[C@@H](OCCCn3cc[n+](-c4ccc5ccccc5n4)c3)O[C@@H]3O[C@@]4(C)CCC1[C@@]23OO4 (stereo partly drawn) [L3-Quin, 3′-Quinolin-2-yl-1′-[10β-(20-propoxy)dihydroartemisinin]1H-imidazol-3-ium bromide] | 330 ± 69 nM |  |  |  |
| Cc1cc(C)c(-[n+]2ccn(CCCCO[C@H]3O[C@@H]4O[C@@]5(C)CCC6[C@H](C)CCC([C@H]3C)[C@]64OO5)c2)c(C)c1 (stereo partly drawn) [L4-Mes, 3′-Mesityl-1′-[10β-(21-butoxy)dihydroartemisinin]1H-imidazol-3-ium bromide] | 219 ± 18 nM |  |  |  |
| C[C@@H]1CCC2[C@@H](C)[C@@H](OCCCCn3cc[n+](Cc4ccccc4)c3)O[C@@H]3O[C@@]4(C)CCC1[C@@]23OO4 (stereo partly drawn) [L4-Bn, 3′-Benzyl-1′-[10β-(21-butoxy)dihydroartemisinin]1H-imidazol-3-ium bromide] | 326 ± 44 nM |  |  |  |
| CO[C@H]1O[C@@H]2O[C@@]3(C)CC[C@H]4[C@H](C)CC[C@@H]([C@H]1C)[C@@]24OO3 [Artemether] |  |  |  | IC50 ([1]; Plasmodium falciparum, F32, 48 h, read-out: Antiplasmodial Activity on P. falciparum IC50 ± SEM, strain F32-Tanzania (F32-TEM), mean of at least 4 experiments, SYBR Green and radioactivity assays): 6.1 ± 1 nM; Selectivity Index Vero Cells/P. falciparum (Vero cell line; cytotoxic/antiplasmodial activity ratio): 35 000 |
| C[C@@H]1CCC2[C@@H](C)[C@@H](OCCCCCn3cc[n+](-c4ccc5ccccc5n4)c3)O[C@@H]3O[C@@]4(C)CCC1[C@@]23OO4 (stereo partly drawn) [L5-Quin, 3′-Quinolin-2-yl-1′-[10β-(22-pentoxy)dihydroartemisinin]1H-imidazol-3-ium bromide] | 226 ± 29 nM |  |  |  |
| C[C@@H]1CCC2[C@@H](C)[C@@H](OCCCCn3cc[n+](Cc4ccccc4)[c]3[Au-][c]3n(CCCCO[C@H]4O[C@@H]5O[C@@]6(C)CCC7[C@H](C)CCC([C@H]4C)[C@]75OO6)cc[n+]3Cc3ccccc3)O[C@@H]3O[C@@]4(C)CCC1[C@@]23OO4.[Cl-] (some centres unmarked) [Aubis(4-Bn)] |  | 40 ± 21 nM | 700 nM |  |
| C[C@@H]1CCC2[C@@H](C)[C@@H](OCCCCCn3cc[n+](-c4ccc5ccccc5n4)[c]3[Au-][c]3n(CCCCCO[C@H]4O[C@@H]5O[C@@]6(C)CCC7[C@H](C)CCC([C@H]4C)[C@]75OO6)cc[n+]3-c3ccc4ccccc4n3)O[C@@H]3O[C@@]4(C)CCC1[C@@]23OO4.[Cl-] (some centres unmarked) [Aubis(5-Quin)] |  | 38 ± 9 nM | 2000 nM |  |
